Patent US20110092488A1, “Quninoline Methanol Compounds for the Treatment and Prevention of Parasitic Infections” (priority 2005, published 2011)
≈ marks a conversion by molar mass, not a printed value. Entries after “also recorded” stand apart in the source; their conditions may differ.

Key:
P. falciparum TM91C235 = assay: In vitro antimalarial activity against P. falciparum TM91C235; format: cell-based, Plasmodium falciparum
Method: (§1) The in vitro activities of AAQMs against P. falciparum strains W2, D6, TM91C235 and TM90C2A were evaluated using the method of Desjardins et al. as modified by Milhous et al. W2 is chloroquine resistant and mefloquine sensitive, D6 is chloroquine sensitive but naturally less susceptible to mefloquine, TM91C235 is resistant to mefloquine, chloroquine and pyrimethamine as is TM90C2A, however this latter parasite is a two pfmdr1 copy strain. We routinely run mefloquine in this screen as a control to ensure assay validity.

P. falciparum D6 [1] = assay: In vitro antimalarial activity against P. falciparum D6; format: cell-based, Plasmodium falciparum; conditions: FIG. 5
Method: as §1
(§2) The combined effects of azithromycin (as represented by compound 196 on the horizontal axes of FIG. 4 through 6) and WR074086 (as represented by compound 14885 on vertical axes of FIGS. 4 through 6) against three strains of P. falciparum were investigated using isobologram analysis. First, the IC50s of each compound were determined as described above.

[2] = tested on: FVO strain of P. falciparum; assay: Efficacy in P. falciparum-challenged Aotus monkeys; format: in vivo, Plasmodium falciparum in Aotus lemurinus lemurinus; conditions: 10 mg/kg/day x7 oral; groups of two; Cure = parasite free 90 days; R = average day of recrudescence; Failure = rescued with mefloquine
Method: (§3) The P. berghei-mouse efficacy data were obtained from the WRAIR chemical information system (subcutaneous testing) or from recent tests conducted at AFRIMS, Thailand or at the University of Miami using a modified version of the Thompson test. Groups of five mice were inoculated through i.p. injection on day 0 (usually with 1×106 P. berghei-parasitized erythrocytes). The drugs in Table 1 were administered either subcutaneously or orally for three days (usually on days 3-5) at doses of 1.25-160 mg/kg in two to four fold increments. Cure was defined as survival until day 60 (subcutaneous dosing) or day 31 post-treatment (oral dosing). […] The minimum effective dose was the lowest dose level that cured at least one of five mice. The Aotus studies were performed according to Obaldia; Detection of Klebsiella pnuumoniae antibodies in Aotus l. lemurinus (Panamanian owl monkey) using an enzyme linked immunosorbent assay (ELIA) test; Lab Anim (25)133-141 (1991) and Obaldia et al., WR 238605, chloroquine, and their combinations as blood schizonticides against a chloroquine-resistant strain of Plasmodium vivax in Aotus monkeys; Am. J. Trop. Med. Hyg. (56)508-510 (1997), which are incorporated by reference, herein. Groups of two Aotus lemurinus 6 lemurinus of the karyotype VIII or IX (27) male and female monkeys with weights ranging from 742-970 g were inoculated with 5×10^6 parasites of either the FVO strain of P. falciparum or the AMRU1 strain of P. vivax. Both of these strains are chloroquine resistant. […] Monkeys were examined and thick Giemsa-stained blood smears were prepared and enumerated daily (17) to monitor the course of infection. […] In some instances, a high dose of the test drug was used to retreat monkeys instead of the mefloquine rescue. Monkeys are considered cured if they are parasite free 90 days post treatment. […] Plasma samples were taken from the monkeys in some studies for quantification of metabolites. Additional blood samples were taken as appropriate for complete blood counts and serum chemistry. Research was conducted in compliance with the Animal Welfare Act and other federal statutes and regulations relating to animals and experiments involving animals and adheres to principles stated in the Guide for the Care and Use of Laboratory Animals, NRC Publication, 1996 edition (34).

[3] = Aotus, 10 mg/kg/day oral x7
Method: as §3

P. falciparum D6 [4] = assay: Isobologram analysis azithromycin and WR074086, P. falciparum D6; format: cell-based, Plasmodium falciparum
Method: as §2
(§4) Next, IC50s were determined with different fractional starting concentrations of each compound. For example in line C of FIG. 5, the starting concentration of azithromycin was 12500 ng/ml whereas the starting concentration of WR074086 was 5 ng/ml. Each of these starting concentrations is half of that used when each compound was tested alone. […] In the data tables, lines D-H represent other combinations of starting concentrations of each compound.
(§5) For each pair of starting concentrations for each drug, fractional inhibitory concentrations were determined using the following formula: FIC=IC50 in combination/IC50 alone.
(§6) The FICs for the eight tests are plotted as indicated in FIG. 4 through FIG. 6 for each of three P. falciparum strains. Graphs of this type are called isobolograms and additivity is represented by an overall FIC SUM of 1, as represented by the straight line joining the two axes. A potentiative effect is represented by a concave curve below the straight line, since IC50s in combination are lower than expected. Antagonism is represented by a convex curve above the straight line, since IC50s in combination are higher than expected.

[5] = tested on: P. falciparum D6, W2 and TM91C235; assay: Isobologram analysis azithromycin and WR074086, P. falciparum D6, W2 and TM91C235; format: cell-based, Plasmodium falciparum; conditions: WR074086 combined with azithromycin; in many instances; FIGS. 4-6
Method: as §2, §4, §5
as §6, with “Antagonism is represented by a convex curve above the straight line, since IC50s in combination are higher than expected.” left out

- Activity against P. falciparum TM91C235 (IC50 in ng/ml) (P. falciparum TM91C235): 3.4 ng/mL
- TM91C235 IC90 (P. falciparum TM91C235; Table 2): 7.0 ng/mL
- IC50 against P. falciparum D6, compound alone (P. falciparum D6 [1]): 1.8086 ng/mL (≈ 3.9 nM)
- Mean peak concentration [3]: 129 ng/mL
- Plasma conc on day 1 (ng/ml) 2 h ([3]; day 1, 2 h): 179 ng/mL
- Plasma conc on day 1 (ng/ml) 24 h ([3]; day 1, 24 h): 4.0 ng/mL
- Plasma conc. on day 7 (ng/ml) 2 h ([3]; day 7, 2 h): 78 ng/mL
- Plasma conc. on day 7 (ng/ml) 24 h ([3]; day 7, 24 h): 78 ng/mL
- FIC (IC50 in combination/IC50 alone) (P. falciparum D6 [4]; Line C FIG. 5: starting azithromycin 12500 ng/ml, WR074086 5 ng/ml): 0.399
SMILES: CCCCN(CCCC)CC(O)c1cc(-c2ccc(F)cc2)nc2c(Cl)cc(Cl)cc12 (stereo not drawn) [WR074086]
- Outcome in Aotus [2]: cleared parasitemias, but recrudescence was subsequently observed; also recorded: Clear (R25)
- FIC sum (P. falciparum D6 [4]; azithromycin + WR074086, Line C FIG. 5): 0.648
- Minimum fractional inhibitory concentration (FIC) [5]: < 0.5
